{"source": "patent US20220372448A1", "about": "“CELL LINE AND PRODUCING METHOD THEREOF” (University of Yamanashi, priority 2021, published 2022)", "system": "VeroE6/Rep #3 cells", "experiment": "MTS assay for cell survival rate of VeroE6/Rep #3 cells", "conditions": "72 hours, EIDD-2801 20 μM, library compounds 10 μM"}
{"molecule": "CC(C)C(=O)OC[C@H]1O[C@@H](n2ccc(NO)nc2=O)[C@H](O)[C@@H]1O", "note": "[EIDD-2801, molnupiravir]", "values": [{"measurement": "cell proliferation / cell survival (MTS assay) compared with DMSO negative control", "value": "a decrease in cell proliferation was not observed"}]}
